Measurements taken from patent US20240189268A1, “SESQUITERPENE DERIVATIVE OR PHARMACEUTICALLY ACCEPTABLE SALT THEREOF AND USE THEREOF” (MFC CO., LTD., priority 2021, published 2024).
Entries after “also recorded” stand apart in the source; their conditions may differ.

Columns and labels:
aging mice [1] = assay: Muscle size (GC, TA, EDL) of aging mice fed compound; assay type: in vivo; conditions: 21-month-old aging mice, in feed for 3 months; vs Control group
Procedure: 21-month-old aging mice were fed with regular feed (Control), feed containing Cedrol (Reference), and feed containing Compound 1-2 (MFC-2) for 3 months for each group, and thereafter, an animal experiment was conducted to compare the sizes of the Gastrocnemius muscle (GC), Tibialis anterior (TA), and Extensor digitorum longus (EDL) muscles separated from the hind limbs of aging mice.

NF-κB promoter = assay: pNF-κB luciferase assay (NF-κB promoter activity); assay type: cell-based
Procedure: NF-κB was a transcription factor binding to a promoter region of a myostatin gene, a muscle mass regulation target protein, and to determine whether NF-κB was involved in the regulation of myostatin expression of Compound MFC-2, after 12 hours of transfection with 1 μg of the pNF-κB vector, Compound 1-2 (MFC-2) was treated (3 μM) for 12 hours. Thereafter, the luciferase activity was measured by harvesting (FIG. 3H). For reference, pGL3 and pGL4.15 shown in FIG. 3 were a type of luciferase plasmid vector, and the vector itself without the gene inserted was used as Control (control group). The vector in which the promoter region of the NF-κB gene was inserted into the luciferase vector was expressed as pNF-κB.
After 12 hours of transfection with 1 μg of the pNF-κB vector, Compound 1-2 (MFC-2) was pretreated (3 μM) for 3 hours. Thereafter, 0.5 μg/ml of Doxorubicin was treated for 6 hours, harvested, and luciferase activity was measured (FIG. 3I).

Myostatin = assay: qRT-PCR of EDL muscle tissue of aging mice: myostatin; assay type: in vivo; conditions: vs Control group, listed as MFC-2
From the text: (§1) MuRF1 (muscle RING-finger protein 1) was a muscle-specific E3 ubiquitin ligase and a type of atrogene causing sarcopenia, and it was confirmed that the expression of Myostatin and MuRF1 was reduced in the EDL muscle tissue of the group fed with Compound MFC-2.

promoter of MSTN = assay: pMSTN_luc luciferase assay (MSTN promoter activity); assay type: cell-based; conditions: for MSTN promoter activity (luciferase) after Doxorubicin: pretreated 3 hours (1-1: 1, 3, 10 μM; 1-2: 1, 3, 10, 30 μM), vs Doxorubicin alone
Procedure: After 12 hours of transfection with 1 μg of a pMSTN_luc vector (myostatin; new plasmid vector generated by inserting a promoter region of a MSTN gene into a plasmid vector (pGL4.15 vector) capable of luciferase experiment), Compound 1-1 (MFC-1) was pretreated (1, 3, and 10 μM) for 3 hours, respectively. Thereafter, luciferase activity was measured by harvesting after treatment with 0.5 μg/ml of an anticancer agent Doxorubicin for 6 hours. The results were illustrated in FIG. 1B.
(Meanwhile, the luciferase assay used in FIG. 1B was an assay of transfecting a luciferase vector into a cell, treating a drug, and then treating luciferin to measure the amount of light emitted by the activation of the promoter of the gene by the drug. This means that it is possible to determine whether the promoter was activated and that the gene may be regulated at the transcriptional level by the drug touching the promoter region.)
After 12 hours of transfection with 1 μg of the pMSTN_luc vector, Compound 1-2 (MFC-2) was pretreated (1, 3, 10, and 30 μM) for 3 hours, respectively. Thereafter, the luciferase activity was measured by harvesting after treatment with Doxorubicin 0.5 μg/ml for 6 hours. The results were illustrated in FIG. 1C.
Cedrol (Reference) and Compound 1-2 (MFC-2) were each treated (3 μM), respectively, and harvested 12 hours later to measure luciferase activity (FIG. 3J).

aging mice [2] = assay: Grip strength of aging mice; assay type: in vivo; conditions: for grip strength (muscle strength of forelimbs and hindlimbs): 24 to 25-month-old mice, once a week for 16 weeks, vs Control group
Procedure: In addition, the muscle strengths of the forelimbs and hindlimbs of 24 to 25-month-old mice were evaluated for the three groups using a grip strength measuring machine, and the evaluation was conducted once a week for 16 weeks.

[3] = Animal blood analysis of aging mice (CK, LDH, AST, TG); assay type: in vivo
Procedure: For the Control group, Reference group, and MFC-2 group, an animal blood analysis experiment was conducted on aging mice. As a result, it was confirmed that the serum CK level of creatine kinase (CK), which was an enzyme contained in skeletal muscle, myocardium, smooth muscle, etc. to be released into the blood when the muscle was damaged, decreased in the MFC-2 group compared to other groups (FIG. 5A).

MuRF1 = assay: qRT-PCR of EDL muscle tissue of aging mice: MuRF1; assay type: in vivo
From the text: as §1

[4] = then Doxorubicin 0.5 μg/ml 6 hours
[5] = aging mice blood, compared to other groups
[6] = Doxorubicin 0.5 μg/ml for 6 hours, alone

COc1cc(C(=O)O[C@]2(C)CC[C@@]34C[C@@H]2C(C)(C)[C@@H]3CC[C@H]4C)ccc1OC(C)=O [Compound 1-2, (3R,3aS,6R,7R,8aS)-3,6,8,8-tetramethyloctahydro-1H-3a,7-methanoazulen-6-yl-4-acetoxy-3-methoxybenzoate]
muscle size (GC, TA, EDL) (aging mice [1]): increase in muscle size
NF-κB promoter activity (luciferase) (NF-κB promoter; 3 μM for 12 hours, no Doxorubicin): reduces NF-κB promoter activity
NF-κB promoter activity (luciferase) after Doxorubicin (NF-κB promoter; pretreated 3 μM 3 hours, then Doxorubicin 0.5 μg/ml 6 hours, vs Doxorubicin alone): lower expression level than the group treated with Doxorubicin alone
myostatin mRNA expression in EDL muscle tissue (Myostatin): significantly decreased compared to the Control group; also recorded: reduced
pMSTN-luciferase activity (promoter of MSTN; 3 μM, harvested 12 hours later, compared with Cedrol): reduced pMSTN-luciferase activity more effectively than existing Cedrol (Reference)
MSTN promoter activity (luciferase) after Doxorubicin (promoter of MSTN; [4]): lower expression level than the group treated with Doxorubicin alone
inhibitory effect on MSTN promoter activity compared with Compound 1-1 (promoter of MSTN; pretreatment, then Doxorubicin 0.5 μg/ml 6 hours): greater inhibitory effect than Compound 1-1 (MFC-1)
grip strength (muscle strength of forelimbs and hindlimbs) (aging mice [2]; listed as MFC-2): gradually increased compared to the Control group
grip strength compared to Reference group (Cedrol) (aging mice [2]; aging mice, from week 15): increased compared to the Reference group from week 15 later
LDH level ([3]; aging mice blood, compared to Control group): decrease in LDH level
AST level [3, 5]: decrease in the levels thereof
TG level [3, 5]: decrease in the levels thereof
serum CK level ([3]; aging mice, compared to other groups): decreased
MuRF1 mRNA expression in EDL muscle tissue (MuRF1): reduced

COc1cc(C(=O)O[C@]2(C)CC[C@@]34C[C@@H]2C(C)(C)[C@@H]3CC[C@H]4C)ccc1O [Compound 1-1, (3R,3aS,6R,7R,8aS)-3,6,8,8-tetramethyloctahydro-1H-3a,7-metanoazulen-6-yl-4-hydroxy-3-methoxybenzoate]
MSTN promoter activity (luciferase) after Doxorubicin (promoter of MSTN; [4]): lower expression level than a group treated with Doxorubicin alone

C[C@@H]1CC[C@H]2C(C)(C)[C@H]3C[C@@]12CC[C@@]3(C)O [Cedrol, reference compound]
grip strength (muscle strength of forelimbs and hindlimbs) (aging mice [2]): gradually increased compared to the Control group

COc1cccc2c1C(=O)c1c(O)c3c(c(O)c1C2=O)C[C@@](O)(C(=O)CO)C[C@@H]3O[C@H]1C[C@H](N)[C@H](O)[C@H](C)O1 [Doxorubicin, reference compound]
NF-κB promoter activity (luciferase) (NF-κB promoter; [6]): increased
MSTN promoter activity (luciferase) (promoter of MSTN; [6]): rapidly increased
